Test results as given in patent US20060269613A1, “Composition containing nanoparticles containing water-soluble basic drug encpsulated therein” (priority 2003, published 2006).

Test: Ratio of lactone ring-closed TPT over time in 50% human plasma at 37° C. (HPLC)
Type: in vitro ADME
Settings: 50% human plasma diluted with PBS
Experimental: Fifty μL of TPT-containing PLA particle formulation or 50 μL of aqueous TPT solution (0.3 mg/mL) containing 50 mg/mL of PEG-4000 and 50 mg/mL of mannitol was freeze-dried. This freeze-dried product (control) and the above-mentioned nanoparticles were each dissolved in 1 mL of 50% human plasma (diluted with PBS), and were incubated at 37° C. For the purpose of investigating the ratio of ring-opening of lactone ring of TPT with lapse of time, 100 μL was taken out from the incubated sample after 0 hour, 2 hours and 4 hours, and was added to 900 μL of methanol. Plasma protein was denatured while the equilibrium of TPT structure was maintained, and, then, the samples were centrifuged at 10000 rpm for 10 minutes so that protein components were precipitated, and, then, the concentration of lactone ring-opened TPT and that of lactone ring-closed TPT in supernatant were measured with HPLC. An aqueous solution of TPT (pH 3; phosphate*hydro-chloride buffer) was used for control.
(§1) Fifty μL of TPT-containing nanoparticle formulation or a 50 μL of aqueous TPT solution (0.3 mg/mL) containing 50 mg/mL of PEG-4000 and 50 mg/mL of mannitol was freeze-dried, and was dissolved in 1 mL of 50% human plasma (diluted with PBS), and were incubated at 37° C. For the purpose of investigating the ratio of ring-opening and ring-closing of lactone ring of TPT with lapse of time, 100 μL of incubated sample was taken out after 0 hour, 2 hours and 4 hours, and was added to 900 μL of methanol. Plasma protein was denatured while the equilibrium of TPT structure was maintained, and, then, the sample was centrifuged at 10000 rpm for 10 minutes so that protein components were precipitated, and, then, the concentration of lactone ring-opened TPT and that of lactone ring-closed TPT in supernatant were measured with HPLC. An aqueous solution of TPT (pH 3; phosphate*hydrochloride buffer) was used for control.
as §1, with “TPT-containing micellar” for “TPT-containing”, “or” for “or a”, “ring-closing” for “ring-closing of lactone ring”, “HPLC.” for “HPLC. An aqueous solution of TPT (pH 3; phosphate*hydrochloride buffer) was used for control.”
as §1, with “nanocapsule particle” for “nanoparticle”, “its freeze-dried product” for “a 50 μL of aqueous TPT solution (0.3 mg/mL) containing 50 mg/mL of PEG-4000 and 50 mg/mL of mannitol was freeze-dried, and”, “ring-closing” for “ring-closing of lactone ring”, “HPLC.” for “HPLC. An aqueous solution of TPT (pH 3; phosphate*hydrochloride buffer) was used for control.”

ratio of ring-closed TPT in 50% human plasma, 0 Hour (Table 1 (Example 1)): 97.5%
ratio of ring-closed TPT in 50% human plasma, 2 Hours (Table 1 (Example 1)): 24.6%
ratio of ring-closed TPT in 50% human plasma, 4 Hours (Table 1 (Example 1)): 19.4%
ratio of ring-closed TPT in 50% human plasma, 0 Hour (Table 2 (Example 2)): 98.8%
ratio of ring-closed TPT in 50% human plasma, 2 Hours (Table 2 (Example 2)): 20.8%
ratio of ring-closed TPT in 50% human plasma, 4 Hours (Table 2 (Example 2)): 13.4%
ratio of ring-closed TPT in 50% human plasma, 0 Hour (Table 3 (Example 3)): 98.9%
ratio of ring-closed TPT in 50% human plasma, 2 Hours (Table 3 (Example 3)): 18.6%
ratio of ring-closed TPT in 50% human plasma, 4 Hours (Table 3 (Example 3)): 14.6%
ratio of ring-closed TPT in 50% human plasma, 0 Hour (Table 4 (Example 5)): 98.2%
ratio of ring-closed TPT in 50% human plasma, 2 Hours (Table 4 (Example 5)): 14.4%
ratio of ring-closed TPT in 50% human plasma, 4 Hours (Table 4 (Example 5)): 11.9%
SMILES: CC[C@@]1(O)C(=O)OCc2c1cc1n(c2=O)Cc2cc3c(CN(C)C)c(O)ccc3nc2-1 [Control]
